From patent publication US6387947B1, “Antimicrobial cosmetic compositions” (E-L Management Corp., priority 1997, dated 2002)
Entries after “also recorded” stand apart in the source; their conditions may differ.

Columns and labels:
[1] = system: lymphocyte adhesion to endothelial cells; experiment: inhibition of lymphocyte adhesion to endothelial cells; type: cell-based, human
Description: Endothelial cells are grown to confluence and washed thoroughly with basal media prior to the experiment to remove all fetal calf serum. The test compounds are then added to the endothelial culture well and incubated for 2 hours. IL-1β is added to stimulated expression of adhesion molecules on the endothelial cells before lymphocytes are added. Lymphocytes are isolated from blood collected from adult human subjects and added to the endothelial culture wells. PHA is added to stimulate adhesion molecule expression in the lymphocytes and the cultures incubated overnight. After a brief washing procedure, cells are incubated with Rose Bengal, and the number of adherent cells assessed by measuring the absorbance at 570 nm.

Pseudomonas [2] = experiment: microbial challenge of nonionic oil-in-water emulsion, pool 2; type: cell-based; details: for concentration of microbes: 0.473% in emulsion
Description: (§1) A nonionic oil-in-water emulsion is prepared containing 0.473% 3-furan carboxylic acid. The formulation is divided into five portions, each one getting an inoculation at day 0, and a reinoculation after three weeks, of one of the following microbial cultures: (1)Enterics; (2) Pseudomonas; (3)Staphylococcus; (4)Yeast; and (5)Mold. The concentration of microbes in each individual formulation is calculated on the day of the inoculation, and then again calculated on day 2, and at the end of one, two, three (pre-reinoculation) and four weeks, at a variety of pH values. These are also compared with formulations containing 2-furan carboxylic acid and an identical series of microbes, and an acid pH control emulsion without a furan carboxylic acid added. All numbers, other than those listed as “<10”, are log base 10; thus, for example, “6.6” is equivalent to the presence of […] bacteria. Entries of <10 indicate less than 10 colony forming units, the lowest level of detection.

Enterics [3] = experiment: microbial challenge of nonionic oil-in-water emulsion, pool 1; type: cell-based; details: for concentration of microbes: 0.473% in emulsion
Description: as §1

Pseudomonas [4] = experiment: microbial challenge of nonionic oil-in-water emulsion, pool 2; type: cell-based; details: 0.473% in emulsion
Yeast = experiment: microbial challenge of nonionic oil-in-water emulsion, pool 4; type: cell-based; details: for concentration of microbes: 0.473% in emulsion
Description: as §1

Enterics [5] = experiment: microbial challenge of nonionic oil-in-water emulsion, pool 1; type: cell-based; details: 0.473% in emulsion
Staphylococcus = experiment: microbial challenge of nonionic oil-in-water emulsion, pool 3; type: cell-based; details: for concentration of microbes: 0.473% in emulsion
Description: The formulation is divided into five portions, each one getting an inoculation at day 0, and a reinoculation after three weeks, of one of the following microbial cultures: (1)Enterics; (2) Pseudomonas; (3)Staphylococcus; (4)Yeast; and (5)Mold. The concentration of microbes in each individual formulation is calculated on the day of the inoculation, and then again calculated on day 2, and at the end of one, two, three (pre-reinoculation) and four weeks, at a variety of pH values. These are also compared with formulations containing 2-furan carboxylic acid and an identical series of microbes, and an acid pH control emulsion without a furan carboxylic acid added. All numbers, other than those listed as “<10”, are log base 10; thus, for example, “6.6” is equivalent to the presence of […] bacteria. Entries of <10 indicate less than 10 colony forming units, the lowest level of detection.

[6] = antiirritant effect against Balsam of Peru on ventral forearms of volunteers; type: in vivo, human; details: 0.1% in hydroalcohol 1:1, applied twenty minutes before Balsam of Peru; Minolta Chromameter; seven volunteers
Description: Seven volunteers with a history of skin sensitivity to Balsam of Peru are chosen for the study.
The test compounds are applied to the ventral forearms of panelists. The material is allowed to absorb for twenty minutes and then Balsam of Peru, an irritant is applied on the test sites. Skin irritation is measured in terms of increase in skin redness. The degree of redness is measured with a Minolta Chromameter and compared with the controls, the positive control being skin treated with Balsam of Peru alone, and the negative control being a skin site treated with 10% cola solution(a known antiirritant), and challenged like the test products.

[7] = system: PLA2 enzyme obtained from snake venom; details: assay concentrations 0.01, 0.1 and 1 mg/ml
Description: The enzyme reaction is accomplished in a cuvette containing […] of phosphate buffered saline. Fluorometric substrate NBD-C6-HPC is solubilized 1 mM in EtOH, and is diluted in the reaction mixture to yield a 10 μM final concentration. The assay is initiated with the addition of 0.001 units per μl of PLA2 enzyme obtained from snake venom. Enzyme activity is monitored either with or without the presence of potential inhibitors. […] Prior to enzyme addition, samples are measured fluorometrically at excitation 470 and emission 570 to determine background level of fluorescensce. Following enzyme addition, samples are monitored every 15 minutes over a 60 minute period.

Mold = experiment: microbial challenge of nonionic oil-in-water emulsion, pool 5; type: cell-based; details: for concentration of microbes: 0.473% in emulsion
Description: as §1

Compound: O=C(O)c1ccoc1 [3-furan carboxylic acid]
- inhibition of adhesion of polymorphonuclear leukocytes (PMNs) to activated endothelial cells, in words [1]: ability to inhibit the adhesion
- inhibition of lymphocyte adhesion, in words (absorbance at 570 nm, Rose Bengal) ([1]; concentrations of 0.5% and 1%, IL-1β and PHA stimulated): very potent inhibitors of lymphocyte adhesion
- antimicrobial activity against Pseudomonas, in words (Pseudomonas [2]): capable of preventing growth
- concentration of microbes (Pseudomonas [2]; pH 3.0, Week 3): <10 colony forming units
- concentration of microbes (Pseudomonas [2]; pH 4.0, Week 1): <10 colony forming units
- concentration of microbes (Pseudomonas [2]; pH 4.0, Week 2): <10 colony forming units
- concentration of microbes (Pseudomonas [2]; pH 4.0, Week 3): <10 colony forming units
- concentration of microbes (Pseudomonas [2]; pH 5.0, Week 1): <10 colony forming units
- concentration of microbes (Pseudomonas [2]; pH 5.0, Week 2): <10 colony forming units
- concentration of microbes (Pseudomonas [2]; pH 5.0, Week 4): <10 colony forming units
- antimicrobial activity against Enterics, in words (Enterics [3]): capable of preventing growth
- concentration of microbes (Enterics [3]; pH 3.0, Week 1): <10 colony forming units
- concentration of microbes (Enterics [3]; pH 3.0, Week 2): <10 colony forming units
- concentration of microbes (Enterics [3]; pH 3.0, Week 3): <10 colony forming units
- concentration of microbes (Enterics [3]; pH 4.0, Day 0): 6.6 log base 10
- concentration of microbes (Enterics [3]; pH 4.0, Week 1): <10 colony forming units
- concentration of microbes (Enterics [3]; pH 4.0, Week 2): <10 colony forming units
- concentration of microbes (Enterics [3]; pH 5.0, Week 1): <10 colony forming units
- concentration of microbes (Enterics [3]; pH 5.0, Week 3): <10 colony forming units
- concentration of microbes (Pseudomonas [4]; pH 3.0, Day 2): <10 colony forming units
- concentration of microbes (Pseudomonas [4]; pH 3.0, Week 1): <10 colony forming units
- concentration of microbes (Pseudomonas [4]; pH 3.0, Week 2): <10 colony forming units
- concentration of microbes (Pseudomonas [4]; pH 3.0, Week 4): <10 colony forming units
- concentration of microbes (Pseudomonas [4]; pH 4.0, Day 2): <10 colony forming units
- concentration of microbes (Pseudomonas [4]; pH 4.0, Week 4): <10 colony forming units
- concentration of microbes (Pseudomonas [4]; pH 5.0, Day 2): <10 colony forming units
- concentration of microbes (Pseudomonas [4]; pH 5.0, Week 3): <10 colony forming units
- antimicrobial activity against yeast, in words (Yeast): substantially reducing the growth; also recorded: superior to 2-furan carboxylic acid
- concentration of microbes (Yeast; pH 3.0, Day 0): 5.7 log base 10
- concentration of microbes (Yeast; pH 3.0, Day 2): <10 colony forming units
- concentration of microbes (Yeast; pH 3.0, Week 1): <10 colony forming units
- concentration of microbes (Yeast; pH 3.0, Week 2): <10 colony forming units
- concentration of microbes (Yeast; pH 3.0, Week 3): <10 colony forming units
- concentration of microbes (Yeast; pH 3.0, Week 4): <10 colony forming units
- concentration of microbes (Yeast; pH 4.0, Day 0): 5.7 log base 10
- concentration of microbes (Yeast; pH 4.0, Day 2): 2.5 log base 10
- concentration of microbes (Yeast; pH 4.0, Week 1): <10 colony forming units
- concentration of microbes (Yeast; pH 4.0, Week 2): <10 colony forming units
- concentration of microbes (Yeast; pH 4.0, Week 3): <10 colony forming units
- concentration of microbes (Yeast; pH 4.0, Week 4): <10 colony forming units
- concentration of microbes (Yeast; pH 5.0, Day 0): 5.7 log base 10
- concentration of microbes (Yeast; pH 5.0, Day 2): 2.5 log base 10
- concentration of microbes (Yeast; pH 5.0, Week 1): 2.7 log base 10
- concentration of microbes (Yeast; pH 5.0, Week 2): 1.7 log base 10
- concentration of microbes (Yeast; pH 5.0, Week 3): 2.0 log base 10
- concentration of microbes (Yeast; pH 5.0, Week 4): 1.8 log base 10
- concentration of microbes (Enterics [5]; pH 3.0, Day 0): 6.6 log base 10
- concentration of microbes (Enterics [5]; pH 3.0, Day 2): <10 colony forming units
- concentration of microbes (Enterics [5]; pH 3.0, Week 4): <10 colony forming units
- concentration of microbes (Enterics [5]; pH 4.0, Day 2): <10 colony forming units
- concentration of microbes (Enterics [5]; pH 4.0, Week 3): <10 colony forming units
- concentration of microbes (Enterics [5]; pH 4.0, Week 4): <10 colony forming units
- concentration of microbes (Enterics [5]; pH 5.0, Day 0): 6.6 log base 10
- concentration of microbes (Enterics [5]; pH 5.0, Day 2): <10 colony forming units
- concentration of microbes (Enterics [5]; pH 5.0, Week 2): <10 colony forming units
- concentration of microbes (Enterics [5]; pH 5.0, Week 4): <10 colony forming units
- antimicrobial activity against Staphylococcus, in words (Staphylococcus): capable of preventing growth
- concentration of microbes (Staphylococcus; pH 3.0, Day 0): 6.3 log base 10
- concentration of microbes (Staphylococcus; pH 3.0, Day 2): <10 colony forming units
- concentration of microbes (Staphylococcus; pH 3.0, Week 1): <10 colony forming units
- concentration of microbes (Staphylococcus; pH 3.0, Week 2): <10 colony forming units
- concentration of microbes (Staphylococcus; pH 3.0, Week 3): <10 colony forming units
- concentration of microbes (Staphylococcus; pH 3.0, Week 4): <10 colony forming units
- concentration of microbes (Staphylococcus; pH 4.0, Day 0): 6.3 log base 10
- concentration of microbes (Staphylococcus; pH 4.0, Day 2): <10 colony forming units
- concentration of microbes (Staphylococcus; pH 4.0, Week 1): <10 colony forming units
- concentration of microbes (Staphylococcus; pH 4.0, Week 2): <10 colony forming units
- concentration of microbes (Staphylococcus; pH 4.0, Week 3): <10 colony forming units
- concentration of microbes (Staphylococcus; pH 4.0, Week 4): <10 colony forming units
- concentration of microbes (Staphylococcus; pH 5.0, Day 0): 6.3 log base 10
- concentration of microbes (Staphylococcus; pH 5.0, Day 2): <10 colony forming units
- concentration of microbes (Staphylococcus; pH 5.0, Week 1): <10 colony forming units
- concentration of microbes (Staphylococcus; pH 5.0, Week 2): <10 colony forming units
- concentration of microbes (Staphylococcus; pH 5.0, Week 3): <10 colony forming units
- concentration of microbes (Staphylococcus; pH 5.0, Week 4): <10 colony forming units
- effectiveness in preventing the onset of irritation (reduction of skin redness) [6]: 48%
- PLA2 inhibition, in words [7]: exceptionally active
- antimicrobial activity against Mold, in words (Mold): capable of preventing growth; also recorded: superior to 2-furan carboxylic acid
- concentration of microbes (Mold; pH 3.0, Day 0): 5.2 log base 10
- concentration of microbes (Mold; pH 3.0, Day 2): <10 colony forming units
- concentration of microbes (Mold; pH 3.0, Week 1): <10 colony forming units
- concentration of microbes (Mold; pH 3.0, Week 2): <10 colony forming units
- concentration of microbes (Mold; pH 3.0, Week 3): <10 colony forming units
- concentration of microbes (Mold; pH 3.0, Week 4): <10 colony forming units
- concentration of microbes (Mold; pH 4.0, Day 0): 5.2 log base 10
- concentration of microbes (Mold; pH 4.0, Day 2): <10 colony forming units
- concentration of microbes (Mold; pH 4.0, Week 1): <10 colony forming units
- concentration of microbes (Mold; pH 4.0, Week 2): <10 colony forming units
- concentration of microbes (Mold; pH 4.0, Week 3): <10 colony forming units
- concentration of microbes (Mold; pH 4.0, Week 4): <10 colony forming units
- concentration of microbes (Mold; pH 5.0, Day 0): 5.2 log base 10
- concentration of microbes (Mold; pH 5.0, Day 2): <10 colony forming units
- concentration of microbes (Mold; pH 5.0, Week 1): <10 colony forming units
- concentration of microbes (Mold; pH 5.0, Week 2): <10 colony forming units
- concentration of microbes (Mold; pH 5.0, Week 3): <10 colony forming units
- concentration of microbes (Mold; pH 5.0, Week 4): <10 colony forming units

Compound: COc1cc(/C=C/C(=O)O)ccc1O [Ferulic acid, ferulic acid]
- effectiveness in preventing the onset of irritation (reduction of skin redness) [6]: 72%
